Assay results: patent US20150125889A1, “IN VITRO DETECTION OF MICROORGANISMS WITH AZOREDUCTASE ACTIVITY” (BIOMÉRIEUX, priority 2012, published 2015)

Key:
Assay in all cases: Reduction of azo substrates over 24 hours at 35° C., microtitration plate (Example 1)
Type in all cases: cell-based
Kocuria rosea = test system: Kocuria rosea; set-up: key to RED (substrate reduced or not): RED indicates whether the substrate is reduced (Y) or not (N); RED indicates whether the substrate is reduced (Y) or not (N); key to Co (growth, absorbance at 660 nm) / Decol (substrate decolourized, decrease in absorbance) / Fluo (fluorescence multiplied by 2 relative to substrate-free control): The symbol “+” means good growth/decolourization/significant increase in fluorescence; The symbol “+/−” means difficult growth; The symbol “−” means that there is no growth/decolourization/significant increase in fluorescence; details: K. rosea, substrate 35 mg/l
Summary of the method: (§1)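 Strains were incubated 24 h at 35° C. in Trypcase soya broth with azo substrate (35 mg/l), starting from a 0.5 McFarland inoculum. Growth was monitored at 660 nm, while decolourization and fluorescence increase were scored at wavelengths specific to each substrate.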

Geotrichum candidum = test system: Geotrichum candidum; set-up: key to RED (substrate reduced or not): RED indicates whether the substrate is reduced (Y) or not (N); RED indicates whether the substrate is reduced (Y) or not (N); key to Co (growth, absorbance at 660 nm) / Decol (substrate decolourized, decrease in absorbance) / Fluo (fluorescence multiplied by 2 relative to substrate-free control): The symbol “+” means good growth/decolourization/significant increase in fluorescence; The symbol “+/−” means difficult growth; The symbol “−” means that there is no growth/decolourization/significant increase in fluorescence; details: G. candidum, substrate 35 mg/l
Summary of the method: as §1

[1] = test system: Staphylococcus epidermidis; set-up: key to RED (substrate reduced or not): RED indicates whether the substrate is reduced (Y) or not (N); RED indicates whether the substrate is reduced (Y) or not (N); key to Co (growth, absorbance at 660 nm) / Decol (substrate decolourized, decrease in absorbance) / Fluo (fluorescence multiplied by 2 relative to substrate-free control): The symbol “+” means good growth/decolourization/significant increase in fluorescence; The symbol “+/−” means difficult growth; The symbol “−” means that there is no growth/decolourization/significant increase in fluorescence; details: S. epidermidis, substrate 35 mg/l
Summary of the method: as §1

Escherichia coli = test system: Escherichia coli; set-up: key to RED (substrate reduced or not): RED indicates whether the substrate is reduced (Y) or not (N); RED indicates whether the substrate is reduced (Y) or not (N); key to Co (growth, absorbance at 660 nm) / Decol (substrate decolourized, decrease in absorbance) / Fluo (fluorescence multiplied by 2 relative to substrate-free control): The symbol “+” means good growth/decolourization/significant increase in fluorescence; The symbol “+/−” means difficult growth; The symbol “−” means that there is no growth/decolourization/significant increase in fluorescence; details: E. coli, substrate 35 mg/l
Summary of the method: as §1

Pseudomonas aeruginosa = test system: Pseudomonas aeruginosa; set-up: key to RED (substrate reduced or not): RED indicates whether the substrate is reduced (Y) or not (N); RED indicates whether the substrate is reduced (Y) or not (N); key to Co (growth, absorbance at 660 nm) / Decol (substrate decolourized, decrease in absorbance) / Fluo (fluorescence multiplied by 2 relative to substrate-free control): The symbol “+” means good growth/decolourization/significant increase in fluorescence; The symbol “+/−” means difficult growth; The symbol “−” means that there is no growth/decolourization/significant increase in fluorescence; details: P. aeruginosa, substrate 35 mg/l
Summary of the method: as §1

Cronobacter muytjensii = test system: Cronobacter muytjensii; set-up: key to RED (substrate reduced or not): RED indicates whether the substrate is reduced (Y) or not (N); RED indicates whether the substrate is reduced (Y) or not (N); key to Co (growth, absorbance at 660 nm) / Decol (substrate decolourized, decrease in absorbance) / Fluo (fluorescence multiplied by 2 relative to substrate-free control): The symbol “+” means good growth/decolourization/significant increase in fluorescence; The symbol “+/−” means difficult growth; The symbol “−” means that there is no growth/decolourization/significant increase in fluorescence; details: E. muytjensii, substrate 35 mg/l
Summary of the method: as §1

Staphylococcus aureus = test system: Staphylococcus aureus; set-up: key to RED (substrate reduced or not): RED indicates whether the substrate is reduced (Y) or not (N); RED indicates whether the substrate is reduced (Y) or not (N); key to Co (growth, absorbance at 660 nm) / Decol (substrate decolourized, decrease in absorbance) / Fluo (fluorescence multiplied by 2 relative to substrate-free control): The symbol “+” means good growth/decolourization/significant increase in fluorescence; The symbol “+/−” means difficult growth; The symbol “−” means that there is no growth/decolourization/significant increase in fluorescence; details: S. aureus, substrate 35 mg/l
Summary of the method: as §1

Candida albicans = test system: Candida albicans; set-up: key to RED (substrate reduced or not): RED indicates whether the substrate is reduced (Y) or not (N); RED indicates whether the substrate is reduced (Y) or not (N); key to Co (growth, absorbance at 660 nm) / Decol (substrate decolourized, decrease in absorbance) / Fluo (fluorescence multiplied by 2 relative to substrate-free control): The symbol “+” means good growth/decolourization/significant increase in fluorescence; The symbol “+/−” means difficult growth; The symbol “−” means that there is no growth/decolourization/significant increase in fluorescence; details: substrate 35 mg/l
Summary of the method: as §1

Enterococcus faecalis = test system: Enterococcus faecalis; set-up: key to RED (substrate reduced or not): RED indicates whether the substrate is reduced (Y) or not (N); RED indicates whether the substrate is reduced (Y) or not (N); key to Decol (substrate decolourized, decrease in absorbance) / Fluo (fluorescence multiplied by 2 relative to substrate-free control) / Co (growth, absorbance at 660 nm): The symbol “+” means good growth/decolourization/significant increase in fluorescence; The symbol “+/−” means difficult growth; The symbol “−” means that there is no growth/decolourization/significant increase in fluorescence; details: E. faecalis, substrate 35 mg/l
Summary of the method: as §1

Acinetobacter baumanii = test system: Acinetobacter baumanii; set-up: key to RED (substrate reduced or not): RED indicates whether the substrate is reduced (Y) or not (N); RED indicates whether the substrate is reduced (Y) or not (N); key to Decol (substrate decolourized, decrease in absorbance) / Fluo (fluorescence multiplied by 2 relative to substrate-free control) / Co (growth, absorbance at 660 nm): The symbol “+” means good growth/decolourization/significant increase in fluorescence; The symbol “+/−” means difficult growth; The symbol “−” means that there is no growth/decolourization/significant increase in fluorescence; details: A. baumannii, substrate 35 mg/l
Summary of the method: as §1

CC(=O)Oc1ccc(/N=N/c2ccccc2C(=O)O)cc1 [2-(4-acetoxyphenylazo)benzoic acid, 2-(4-Acetoxyphenylazo)benzoic acid]
−: Co (growth, absorbance at 660 nm) (Kocuria rosea) | Decol (substrate decolourized, decrease in absorbance) (Kocuria rosea) | Fluo (fluorescence multiplied by 2 relative to substrate-free control) (Kocuria rosea) | Decol (substrate decolourized, decrease in absorbance) (Pseudomonas aeruginosa) | Fluo (fluorescence multiplied by 2 relative to substrate-free control) (Pseudomonas aeruginosa) | Decol (substrate decolourized, decrease in absorbance) (Candida albicans) | Fluo (fluorescence multiplied by 2 relative to substrate-free control) (Candida albicans)
Y: RED (substrate reduced or not) (Geotrichum candidum) | RED (substrate reduced or not) [1] | RED (substrate reduced or not) (Escherichia coli) | RED (substrate reduced or not) (Cronobacter muytjensii) | RED (substrate reduced or not) (Staphylococcus aureus) | RED (substrate reduced or not) (Enterococcus faecalis) | RED (substrate reduced or not) (Acinetobacter baumanii)
N: RED (substrate reduced or not) (Pseudomonas aeruginosa) | RED (substrate reduced or not) (Candida albicans)
+: Co (growth, absorbance at 660 nm) (Geotrichum candidum) | Decol (substrate decolourized, decrease in absorbance) (Geotrichum candidum) | Fluo (fluorescence multiplied by 2 relative to substrate-free control) (Geotrichum candidum) | Co (growth, absorbance at 660 nm) [1] | Decol (substrate decolourized, decrease in absorbance) [1] | Fluo (fluorescence multiplied by 2 relative to substrate-free control) [1] | Co (growth, absorbance at 660 nm) (Escherichia coli) | Decol (substrate decolourized, decrease in absorbance) (Escherichia coli) | Fluo (fluorescence multiplied by 2 relative to substrate-free control) (Escherichia coli) | Co (growth, absorbance at 660 nm) (Pseudomonas aeruginosa) | Co (growth, absorbance at 660 nm) (Cronobacter muytjensii) | Decol (substrate decolourized, decrease in absorbance) (Cronobacter muytjensii) | Fluo (fluorescence multiplied by 2 relative to substrate-free control) (Cronobacter muytjensii) | Co (growth, absorbance at 660 nm) (Staphylococcus aureus) | Decol (substrate decolourized, decrease in absorbance) (Staphylococcus aureus) | Fluo (fluorescence multiplied by 2 relative to substrate-free control) (Staphylococcus aureus) | Co (growth, absorbance at 660 nm) (Candida albicans) | Co (growth, absorbance at 660 nm) (Enterococcus faecalis) | Decol (substrate decolourized, decrease in absorbance) (Enterococcus faecalis) | Fluo (fluorescence multiplied by 2 relative to substrate-free control) (Enterococcus faecalis) | Co (growth, absorbance at 660 nm) (Acinetobacter baumanii) | Decol (substrate decolourized, decrease in absorbance) (Acinetobacter baumanii) | Fluo (fluorescence multiplied by 2 relative to substrate-free control) (Acinetobacter baumanii)
